Measurements: US20240277706A1, “METHODS AND COMPOSTITIONS FOR TARGETING PD-L1” (Aligos Therapeutics, Inc., priority 2023, published 2024)

Legend:
[1] = target: T1, PD-1/PD-L1 interaction (Homo sapiens, UniProt Q9NZQ7); assay: PD-1/PD-L1 NFAT Reporter Assay (Jurkat/CHO co-culture); format: cell-based; conditions: Jurkat cells overexpressing PD-1 with NFAT luciferase, co-culture with PD-L1 expressing CHO cells, 6 hrs at 37° C.
T1 construct: expressed in transfected cells; Jurkat cells (PD-1 and NFAT-luciferase)
Experimental: Blocking the PD-1/PD-L1 interaction will release the inhibitory signal and results in TCR signaling and NFAT-mediated luciferase activity.
CHO cells expressing surface-bound anti-CD3 antibodies and PD-L1 were first seeded overnight and treated with the compounds. Jurkat cells overexpressing PD-1 and a luciferase construct under NFAT promoter were then immediately seeded on the monolayer of CHO cells. The co-culture was then incubated for 6 hrs at 37° C. Luciferase activity was assessed by adding the ONE-Glo reagent and measuring luminescence with a plate reader. EC50 values were determined from the fit of the dose-response curves.

[2] = target: PD-1/PD-L1 (Homo sapiens, UniProt Q9NZQ7); assay: PDL1/PD1 Binding Assay; conditions: PDL1-6×His 0.3 nM, PD1-Fc-Avi-Biotin 2.5 nM, acceptor/donor beads, Envision reader; read-out: PD-1/PD-L1 PPI IC50
Experimental: Compounds to be tested were serially diluted in DMSO, and further diluted in assay buffer (25 mM Hepes pH 7.4, 150 mM NaCl, 0.005% Tween 20, BSA 0.01%). Diluted compounds were added to the wells with final concentration of DMSO at 1%. PDL1-6×His protein was added to the wells, mixed well with compound. The plates were incubated for 30 min at room temperature. PD1-Fc-Avi-Biotin protein was added to the wells. Final concentration of PDL1 and PD1 protein is 0.3 nM and 2.5 nM, respectively. After a binding time of 30 min at room temperature, Anti-6×His Acceptor beads (final concentration 20 ug/ml) were added to the wells, and the incubation continued for 1 h. Streptavidin Donor beads (final concentration 20 ug/mL) were added at reduced light. The plates were sealed with foil and incubated in the dark for additional 1 h or overnight before reading on an Envision reader. The IC50 values were determined by fitting the curves using a four-parameter equation in Graphpad Prism 8.

T1 sequence (Q9NZQ7 19-290): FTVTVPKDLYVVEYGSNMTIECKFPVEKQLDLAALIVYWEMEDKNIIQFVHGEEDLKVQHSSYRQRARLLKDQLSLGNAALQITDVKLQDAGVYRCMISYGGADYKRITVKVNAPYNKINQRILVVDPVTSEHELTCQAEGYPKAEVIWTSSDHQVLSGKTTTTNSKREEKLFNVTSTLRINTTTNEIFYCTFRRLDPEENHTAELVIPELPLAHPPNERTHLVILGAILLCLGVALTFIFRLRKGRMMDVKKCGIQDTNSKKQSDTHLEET
Sequence of PD-1/PD-L1 (Q9NZQ7 19-238 limits assumed): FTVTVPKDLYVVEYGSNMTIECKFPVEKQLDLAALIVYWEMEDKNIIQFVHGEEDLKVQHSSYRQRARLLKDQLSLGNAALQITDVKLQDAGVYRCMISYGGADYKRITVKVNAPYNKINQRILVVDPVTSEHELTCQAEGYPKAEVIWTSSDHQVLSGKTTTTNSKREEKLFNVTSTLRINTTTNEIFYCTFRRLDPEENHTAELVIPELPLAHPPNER

| SMILES | EC50 [1] | IC50 [2] | Jurkat NFAT EC50 [1] |
| --- | --- | --- | --- |
| COc1nc(-c2cccc(-c3cccc(NC(=O)c4ccnn(C)c4=O)c3Cl)c2Cl)ccc1CN1CC(c2nnn[nH]2)C1 [Compound C-26] | 10 to 100 nM | ≤ 10 nM |  |
| COc1nc(-c2cccc(-c3cccc(NC(=O)c4ccnn(C)c4=O)c3Cl)c2Cl)ccc1CN1CCC(c2nnn[nH]2)CC1 [Compound C-95] | 10 to 100 nM | ≤ 10 nM |  |
| COc1nc(-c2cccc(-c3cccc(NC(=O)c4ccnn(C)c4=O)c3Cl)c2Cl)ccc1CN1CCC(F)(C(=O)O)CC1 [Compound C-97] | 10 to 100 nM | ≤ 10 nM |  |
| COc1nc(-c2cccc(-c3cccc(NC(=O)c4ccnn(C)c4=O)c3Cl)c2Cl)ccc1CN1CC2CCC(C1)C2C(=O)O (stereo not drawn) [Compound C-99] | 100 to 1000 nM |  |  |
| COc1nc(-c2cccc(-c3cccc(NC(=O)c4ccnn(C)c4=O)c3Cl)c2Cl)ccc1CN1C[C@@H]2[C@H](C1)[C@H]2C(=O)O [Compound C-100] | 10 to 100 nM | ≤ 10 nM |  |
| COc1nc(-c2cccc(-c3cccc(NC(=O)c4ccnn(C)c4=O)c3Cl)c2Cl)ccc1CN1CCC2(C(=O)O)CC2C1 (stereo not drawn) [Compound C-101] | 10 to 100 nM | ≤ 10 nM |  |
| COc1nc(-c2cccc(-c3cccc(NC(=O)c4ccnn(C)c4=O)c3Cl)c2Cl)ccc1CN1CC2CC(C1)C2C(=O)O (stereo not drawn) [Compound C-102] | 10 to 100 nM | ≤ 10 nM |  |
| COc1nc(-c2cccc(-c3cccc(NC(=O)c4ccnn(C)c4=O)c3Cl)c2Cl)cnc1CN1CCC(C(=O)O)CC1 [Compound C-104] | 10 to 100 nM | ≤ 10 nM |  |
| COc1nc(-c2cccc(-c3cccc(NC(=O)c4ccnn(C)c4=O)c3C)c2Cl)cnc1CN1CCC(C(=O)O)CC1 [Compound C-105] | 10 to 100 nM | ≤ 10 nM |  |

Further lines, results first:

| EC50 [1] | IC50 [2] | Jurkat NFAT EC50 [1] | SMILES |
| --- | --- | --- | --- |
| 10 to 100 nM | ≤ 10 nM |  | COc1nc(-c2cccc(-c3cccc(NC(=O)c4ccnn(C)c4=O)c3Cl)c2Cl)ccc1CN1CCC(C(=O)O)CC1 [Compound C-43] |
|  | ≤ 10 nM | n.r | CCOC(=O)C1CCN(Cc2ccc(-c3cccc(-c4cccc(NC(=O)c5ccnn(C)c5=O)c4Cl)c3Cl)nc2OC)CC1 [Compound C-51] |
| 10 to 100 nM | ≤ 10 nM |  | COc1nc(-c2cccc(-c3cccc(NC(=O)c4ccnn(C)c4=O)c3Cl)c2Cl)ccc1CN1CCC(C)(C(=O)O)CC1 [Compound C-96] |
| 10 to 100 nM | ≤ 10 nM |  | COc1nc(-c2cccc(-c3cccc(NC(=O)c4ccnn(C)c4=O)c3Cl)c2Cl)ccc1CN1CCC(OC)(C(=O)O)CC1 [Compound C-98] |
| 10 to 100 nM | ≤ 10 nM |  | COc1nc(-c2cccc(-c3cccc(NC(=O)c4ccnn(C)c4=O)c3C)c2Cl)ccc1CN1CCC(C(=O)O)CC1 [Compound C-103] |
| 10 to 100 nM |  |  | COc1nc(-c2cccc(-c3cccc(NC(=O)c4ccnn(C)c4=O)c3Cl)c2Cl)ccc1CN1CCC(O)(C(=O)O)CC1 [Compound C-106] |
| 10 to 100 nM | ≤ 10 nM |  | CCOC(=O)C1CCN(Cc2ncc(-c3cccc(-c4cccc(NC(=O)c5ccnn(C)c5=O)c4Cl)c3Cl)nc2OC)CC1 [Compound C-107] |
